Assay results reported in PubChem BioAssay AID179 (DTP/NCI, 2004).
Active and inactive are the calls of the source.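 Rule for the calls: active = compounds giving half or more protection of infected cells from virus-caused growth loss, again on retest; inactive = the rest.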

Tested on: CEM cells HIV-1 protection, formazan growth assay
Assay: NCI AIDS Antiviral Assay
Settings: for IC50: measured here: growth of uninfected CEM cells
In short: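 Screen of anti-HIV-1 activity in human CEM cells using a formazan-based growth measurement at five drug concentrations. Hits with 50% or greater protection were repeated, and confirmation required reproducible complete protection.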

Structure (SMILES) | EC50 [µM] | IC50 [µM] | outcome
O=[N+]([O-])c1ccc2cnn(CSP(=S)(c3ccccc3)c3ccccc3)c2c1 | > 200 | 3.02 | 
O=C1C2CCc3cnn(-c4ccccc4)c3C2C(=O)N1c1ccccc1 (centres undefined) | > 200 | > 200 | 
CC1S/C(=N\N=C\c2ccc(Cl)cc2)N=C1c1c(O)c2ccccc2oc1=O (centres undefined) | > 200 | 36.3 | 
COc1ccc(/C(CC2OC(=O)c3ccccc32)=N\NC(=O)C[N+](C)(C)C)cc1 (centres undefined) | > 77.6 | 24 | 
CSc1ccc(C(=O)C(=O)c2ccc(SC)s2)s1 | > 200 | 155 | 
O=C(Nc1nc2ncn(CCNCCn3cnc4nc(NC(=O)c5ccccc5)[nH]c(=O)c43)c2c(=O)[nH]1)c1ccccc1 | > 23.4 | > 23.4 | 
C[S+](C)CCS(=O)(=O)[O-] | > 200 | > 200 | 
Cc1nnc2sc3c(Cl)c4nn5c(C)nnc5sc4c(Cl)c3nn12 | > 200 | 2.95 | 
O=[N+]([O-])c1cc(F)ccc1Sc1ccccc1 | > 200 | 95.5 | 
N#CCC(=O)N/N=C1/C(=O)NC(=O)C(=O)C1c1nc2ccccc2s1 (centres undefined) |  |  | inactive
CCOC(=O)NC1CN2CCC1CC2 (centres undefined) | > 200 | > 200 | 
Cc1cnc2c(c1)C(=O)C1=C(OC(C)(C)CC1O)C2=O (centres undefined) | > 26.3 | 3.39 | 
CC1=NN(C(=O)CC(=O)NC(=O)CC(=O)Nc2ccccc2F)C(=O)C1N=Nc1ccc([N+](=O)[O-])cc1 (centres undefined) | > 70.8 | 44.7 | 
Cc1ccc(-c2cc(=S)n(-c3ccccc3)c3nc(=S)n(-c4ccccc4)c(N)c23)cc1 | > 200 | 138 | 
COc1ccc(C2C3COc4ccccc4C3=NN2c2ccccc2)cc1 (centres undefined) | > 200 | > 200 | 
CC(C)(C)[Si](C)(C)OCC1CCC(n2cnc3c(NC(=O)c4ccccc4)ncnc32)O1 (centres undefined) |  |  | inactive
Cc1nc2c(sc(=S)n2-c2ccccc2)c2nc3ccccc3n12 | > 2.09 | > 2.09 | 
O=C(CSc1nnc(Cc2ccccc2)o1)Nc1cccc(Cl)c1 | > 100 | 49 | 
CC1=CC(=O)/C(=C/n2c(=S)[nH]c3ccccc32)C(=O)O1 | > 200 | > 200 | 

Structure (SMILES) | EC50 [µM] | IC50 [µM] | outcome
O=[N+]([O-])c1ccccc1S(=O)(=O)c1cc(Cl)cc2c1NCCC2 | > 151 | 28.8 | 
COc1ccc(C2CC(c3ccccc3)=Nc3ccccc3S2)cc1OC (centres undefined) | > 39.8 | 8.51 | 
Nc1cccc(C(CC(=O)O)CC(=O)O)c1 | > 200 | > 200 | 
O=c1c2cc(-c3ccccc3)sc2nc2n1N=C(c1ccccc1)CS2 | > 200 | > 200 | 
C[C@@H]1OCC(O)C([C@H]2OC(c3ccccc3)=N[C@H]2CO)O1 (some centres undefined) | > 200 | > 200 | 
COc1ccc(C[C@H]2C(=O)OC[C@@H]2Cc2ccc(OC)c(OC)c2)cc1O | > 200 | 70.8 | 
CCN(CC)c1cccc2c1/C(=N/O)CCCC2 | > 200 | 120 | 
CC1=CC(=O)/C(=C/N2C(=S)NC(=O)/C2=C/c2cccc([N+](=O)[O-])c2)C(=O)O1 | > 200 | 138 | 
CCn1cc(C(=O)O)c(=O)c2ccc(C)nc21 |  |  | inactive
COC1=C(C)C(=O)c2nc(Cl)cc(C)c2C1=O |  |  | inactive
Cc1cnc(/N=c2\sc(C)cn2-c2ncc(C)s2)s1 | > 200 | > 200 | 
CN1C(=O)CN2CCc3ccccc3C2c2cc(Cl)ccc21 (centres undefined) | > 200 | 129 | 
NC1NCCC(=O)N1CCc1c[nH]c2ccccc12 (centres undefined) | > 200 | 36.3 | 
CC1(C)C2CCC3(C2)CS(=O)(=O)N2OC231 (centres undefined) | > 219 | 120 | 
NCCSSCCN |  |  | active
O=C1OC(c2ccccc2)=N/C1=C\c1ccccc1Cl | > 35.5 | > 35.5 | 
CC(C)(C)n1c(=O)[nH]n(C2NN=Cc3cccc4cccc2c34)c1=O (centres undefined) | > 200 | 24 | 
CC1=C(C(=O)CC(=O)C(=O)NC2C3CC4CC(C3)CC2C4)Sc2ccccc2N1 (centres undefined) | > 9.12 | > 9.12 | 
